Values after ≈ are worked out from the molar mass of the structure shown. Active and inactive are the calls of the source. No cut-off for these calls is given here.
Key:
Danio rerio [1] = test: Cardioprotective activity against doxorubicin-induced Zebrafish cardiomyopathy model at 5 to 15 uM fertilized for 24 hrs followed by compound administration for 72 hrs and measured at 96 hrs post fertilization by inverted fluorescence microscopic analysis; assay type: functional, organism-based; conditions: dose 5-15 µM
Danio rerio [2] = test: Cardioprotective activity against doxorubicin-induced Zebrafish cardiomyopathy model assessed as survival rate at 15 uM fertilized for 24 hrs followed by compound administration for 72 hrs and measured at 96 hrs post fertilization by inverted fluorescence microscopic analysis; assay type: functional
[3] = Toxicity in zebrafish embryos assessed as survival at upto 40 uM fertilized for 24 hrs followed by compound administration for 72 hrs and measured at 96 hrs post fertilization; design: species or system Danio rerio; conditions: in vivo
Danio rerio [4] = species: Danio rerio; test: Cardioprotective activity against doxorubicin-induced Tg(cmlc2: GFP) Zebrafish assessed as reduction in Bnp mRNA level measured at 72 hrs post fertilization by qPCR analysis; assay type: functional, organism-based
Danio rerio [5] = test: Cardioprotective activity against doxorubicin-induced Zebrafish cardiomyopathy model assessed as survival rate at 5 uM fertilized for 24 hrs followed by compound administration for 72 hrs and measured at 96 hrs post fertilization by inverted fluorescence microscopic analysis; assay type: functional; conditions: for survival at 5 µM: Danio rerio
Danio rerio [6] = test: Cardioprotective activity against doxorubicin-induced Tg(cmlc2: GFP) Zebrafish assessed as […] at 5 uM measured at 72 hrs post fertilization; assay type: functional, organism-based
Danio rerio [7] = species: Danio rerio; test: Cardioprotective activity against doxorubicin-induced Tg(cmlc2: GFP) Zebrafish assessed as reduction in Anp mRNA level measured at 72 hrs post fertilization by qPCR analysis; assay type: functional, organism-based; conditions: dose <= 5.0 µM
Danio rerio [8] = species: Danio rerio; test: Cardioprotective activity against doxorubicin-induced Tg(cmlc2: GFP) Zebrafish assessed as reduction in cTnT mRNA level measured at 72 hrs post fertilization by qPCR analysis; assay type: functional, organism-based; conditions: dose <= 5.0 µM
Danio rerio [9] = species: Danio rerio; test: Cardioprotective activity against doxorubicin-induced Tg(cmlc2: GFP) Zebrafish assessed as restoration of normal heart structure at 5 uM measured at 72 hrs post fertilization; assay type: functional, organism-based
Danio rerio [10] = test: Cardioprotective activity against doxorubicin-induced Zebrafish cardiomyopathy model assessed as survival rate at 5 to 15 uM fertilized for 24 hrs followed by compound administration for 72 hrs and measured at 96 hrs post fertilization by inverted fluorescence microscopic analysis; assay type: functional; conditions: dose 5-15 µM
[11] = Water solubility of the compound measured for 24 hrs by HPLC analysis; assay type: physicochemical

For `C[C@@]12CC[C@@H]3[C@@](CC[C@H]4[C@@]3(C)CCC[C@@]4(C)C(=O)N3CCN(C(=O)/C=C/C(=O)O)CC3)(CC1=O)C2`, the Activity (Danio rerio [1]) was “Active” and the survival at 15 µM (Danio rerio [2]) was 50%.

With `C[C@@]12CC[C@@H]3[C@@](CC[C@H]4[C@@]3(C)CCC[C@@]4(C)C(=O)N3CCN(C(=O)C4=C(C(=O)O)CCCC4)CC3)(CC1=O)C2` the Activity [3] was “Non-Toxic”, the Activity (Danio rerio [4]) was “Dose-Dependent Effect” and the Activity (Danio rerio [5]) was 85%. For the same compound, the Activity (Danio rerio [6]) was “Active”, the Activity (Danio rerio [7]) was “Dose-Dependent Effect” and the Activity (Danio rerio [8]) was “Dose-Dependent Effect”. For the same compound, the Activity (Danio rerio [9]) was “Active”.

In the case of `CC(C)(CC(=O)O)C(=O)N1CCN(C(=O)[C@]2(C)CCC[C@@]3(C)[C@@H]4CC[C@@]5(C)C[C@]4(CC[C@@H]32)CC5=O)CC1`, the Activity (Danio rerio [1]) is reported as “Active”.

`COc1cccc(C(=O)N2CCN(C(=O)[C@]3(C)CCC[C@@]4(C)[C@@H]5CC[C@@]6(C)C[C@]5(CC[C@@H]43)CC6=O)CC2)c1OC` showed a Survival (Danio rerio [10]) of 86%.

For `C[C@@]12CC[C@@H]3[C@@](CC[C@H]4[C@@]3(C)CCC[C@@]4(C)C(=O)N3CCN(C(=O)CCCC(=O)O)CC3)(CC1=O)C2`, the Activity (Danio rerio [1]) was “Active”.

In the case of `C[C@@]12CC[C@@H]3[C@@](CC[C@H]4[C@@]3(C)CCC[C@@]4(C)C(=O)N3CCN(C(=O)c4ccccc4C(=O)O)CC3)(CC1=O)C2`, the Activity [3] is reported as “Non-Toxic”, the survival at 5 µM (Danio rerio [5]) is reported as 50% and the solubility at 24 h [11] is reported as 940 µg/mL (≈ 1760 µM). For the same compound, the Survival (Danio rerio [10]) was 50%.

For `C[C@@]12CC[C@@H]3[C@@](CC[C@H]4[C@@]3(C)CCC[C@@]4(C)C(=O)N3CCN(C(=O)COCC(=O)O)CC3)(CC1=O)C2`, the Activity (Danio rerio [1]) was “Active”.

For `C[C@@]12CC[C@@H]3[C@@](CC[C@H]4[C@@]3(C)CCC[C@@]4(C)C(=O)N3CCNCC3)(CC1=O)C2`, the Activity (Danio rerio [1]) was “Active”.

In the case of `CC(CC(=O)O)C(=O)N1CCN(C(=O)[C@]2(C)CCC[C@@]3(C)[C@@H]4CC[C@@]5(C)C[C@]4(CC[C@@H]32)CC5=O)CC1` (some centres undefined), the Activity (Danio rerio [1]) is reported as “Active”.

For `CC1CCCC(C(=O)O)C1C(=O)N1CCN(C(=O)[C@]2(C)CCC[C@@]3(C)[C@@H]4CC[C@@]5(C)C[C@]4(CC[C@@H]32)CC5=O)CC1` (some centres undefined), the Activity (Danio rerio [1]) was “Active”.

For `C[C@@]12CC[C@@H]3[C@@](CC[C@H]4[C@@]3(C)CCC[C@@]4(C)C(=O)N3CCN(C(=O)CCC(=O)O)CC3)(CC1=O)C2`, the Activity (Danio rerio [1]) was “Active”, the survival at 5 µM (Danio rerio [5]) was 50% and the survival at 15 µM (Danio rerio [2]) was 50%.

For `CC(C)(C)OC(=O)N1CCN(C(=O)[C@]2(C)CCC[C@@]3(C)[C@@H]4CC[C@@]5(C)C[C@]4(CC[C@@H]32)CC5=O)CC1`, the Activity (Danio rerio [1]) was “Active”.

Reference: ChEMBL document CHEMBL5543130, “Design, Synthesis, and In Vivo Evaluation of Isosteviol Derivatives as New SIRT3 Activators with Highly Potent Cardioprotective Effects” (J Med Chem, 2024)
